Results on five compounds are retold here after paper PMC3274775 (ACS medicinal chemistry letters, 2011).

The term EC50 denotes the concentration at which the effect is half-maximal. The term IC50 denotes the point on the concentration scale where inhibition reaches its midpoint.

For series [1], the target named is T1, UGT 1A1 (Homo sapiens, UniProt P22309).
T1 sequence (P22309 26-533): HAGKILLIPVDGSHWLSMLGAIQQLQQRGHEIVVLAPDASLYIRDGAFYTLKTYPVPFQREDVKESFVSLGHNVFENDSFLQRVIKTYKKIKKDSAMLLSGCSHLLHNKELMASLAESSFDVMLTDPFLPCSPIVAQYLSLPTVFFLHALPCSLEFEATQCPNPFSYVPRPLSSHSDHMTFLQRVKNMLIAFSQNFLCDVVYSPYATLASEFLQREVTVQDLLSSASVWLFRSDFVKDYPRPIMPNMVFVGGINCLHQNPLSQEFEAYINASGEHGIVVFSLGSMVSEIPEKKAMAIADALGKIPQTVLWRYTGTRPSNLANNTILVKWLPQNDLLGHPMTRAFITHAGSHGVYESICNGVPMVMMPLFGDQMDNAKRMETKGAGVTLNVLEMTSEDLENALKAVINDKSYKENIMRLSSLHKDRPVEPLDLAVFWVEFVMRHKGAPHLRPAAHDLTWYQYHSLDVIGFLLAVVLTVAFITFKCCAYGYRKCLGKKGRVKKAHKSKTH
The note with it: cited from earlier work.

Another series relates to HIV-1. Nature of the series: microbe, parasite or virus in culture. The following applies: Human immunodeficiency virus 1, MAGI.
The target of a further series is HIV-1 integrase (Human immunodeficiency virus type 1 group M subtype B, UniProt P04585). Nature of the series: Inhibition of the strand transfer. Format: biochemical.
A short description of series [2]: Stability in pooled human liver microsomes. Format: in vitro ADME. In general terms: Liver microsomes are a subcellular fraction often used to study metabolism.
The next series concerns the target T2, CYP2C8 (Homo sapiens, UniProt P10632).
T2 sequence (P10632 1-490): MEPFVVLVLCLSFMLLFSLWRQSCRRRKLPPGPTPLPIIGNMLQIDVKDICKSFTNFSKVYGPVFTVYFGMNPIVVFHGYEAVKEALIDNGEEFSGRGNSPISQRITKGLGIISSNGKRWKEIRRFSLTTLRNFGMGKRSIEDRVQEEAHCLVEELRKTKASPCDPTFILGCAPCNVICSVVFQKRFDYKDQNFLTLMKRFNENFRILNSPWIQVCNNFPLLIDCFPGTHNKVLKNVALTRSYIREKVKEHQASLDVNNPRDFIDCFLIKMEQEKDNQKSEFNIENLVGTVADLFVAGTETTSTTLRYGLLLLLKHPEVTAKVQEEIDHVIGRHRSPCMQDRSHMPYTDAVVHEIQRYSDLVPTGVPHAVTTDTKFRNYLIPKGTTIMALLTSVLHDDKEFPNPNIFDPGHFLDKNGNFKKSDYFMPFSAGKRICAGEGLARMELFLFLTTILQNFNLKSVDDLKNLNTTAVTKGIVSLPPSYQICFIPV
Nature of the series: CYP inhibition/activation in pooled human liver microsomes. The class given is in vitro ADME.

A further series addresses CYP2D6 (Homo sapiens, UniProt P10635). The series is described as above. Format: in vitro ADME.
A further series concerns the target T3, UGT 1A4 (Homo sapiens, UniProt P22310).
T3 sequence (P22310 29-534): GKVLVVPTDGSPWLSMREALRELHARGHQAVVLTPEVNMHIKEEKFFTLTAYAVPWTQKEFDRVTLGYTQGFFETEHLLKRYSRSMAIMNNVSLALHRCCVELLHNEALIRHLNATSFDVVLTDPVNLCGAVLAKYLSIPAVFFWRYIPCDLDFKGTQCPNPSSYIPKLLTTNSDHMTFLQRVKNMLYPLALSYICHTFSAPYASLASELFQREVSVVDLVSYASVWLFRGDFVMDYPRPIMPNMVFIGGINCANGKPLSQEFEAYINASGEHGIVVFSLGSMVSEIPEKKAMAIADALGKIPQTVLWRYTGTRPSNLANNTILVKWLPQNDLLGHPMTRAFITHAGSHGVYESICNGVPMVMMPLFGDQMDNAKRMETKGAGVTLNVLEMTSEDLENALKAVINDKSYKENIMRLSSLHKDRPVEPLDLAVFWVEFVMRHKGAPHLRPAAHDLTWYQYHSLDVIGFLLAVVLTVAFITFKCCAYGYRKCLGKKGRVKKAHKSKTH
The experiment in a line: UGT substrate assay.

The next series concerns the target T4, UGT 2B7 (Homo sapiens, UniProt P16662).
T4 sequence (P16662 24-529): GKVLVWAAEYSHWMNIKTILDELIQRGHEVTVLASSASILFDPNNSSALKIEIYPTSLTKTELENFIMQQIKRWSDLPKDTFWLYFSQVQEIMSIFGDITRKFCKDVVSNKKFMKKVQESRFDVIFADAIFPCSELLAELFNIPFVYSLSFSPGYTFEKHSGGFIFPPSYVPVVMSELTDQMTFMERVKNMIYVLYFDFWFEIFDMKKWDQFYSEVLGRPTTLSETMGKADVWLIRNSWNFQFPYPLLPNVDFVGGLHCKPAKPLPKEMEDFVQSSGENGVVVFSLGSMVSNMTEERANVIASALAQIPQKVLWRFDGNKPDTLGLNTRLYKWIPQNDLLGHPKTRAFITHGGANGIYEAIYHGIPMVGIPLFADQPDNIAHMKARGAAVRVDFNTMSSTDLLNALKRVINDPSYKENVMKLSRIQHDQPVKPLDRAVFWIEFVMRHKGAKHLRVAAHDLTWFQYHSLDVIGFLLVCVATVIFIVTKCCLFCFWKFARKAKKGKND
Nature of the series: UGT substrate assay.

The target in series [3] is T1, UGT 1A1. The experiment in a line: UGT substrate assay.
The target of the next series is T5, UGT 1A6 (Homo sapiens, UniProt P19224).
T5 sequence (P19224 27-532): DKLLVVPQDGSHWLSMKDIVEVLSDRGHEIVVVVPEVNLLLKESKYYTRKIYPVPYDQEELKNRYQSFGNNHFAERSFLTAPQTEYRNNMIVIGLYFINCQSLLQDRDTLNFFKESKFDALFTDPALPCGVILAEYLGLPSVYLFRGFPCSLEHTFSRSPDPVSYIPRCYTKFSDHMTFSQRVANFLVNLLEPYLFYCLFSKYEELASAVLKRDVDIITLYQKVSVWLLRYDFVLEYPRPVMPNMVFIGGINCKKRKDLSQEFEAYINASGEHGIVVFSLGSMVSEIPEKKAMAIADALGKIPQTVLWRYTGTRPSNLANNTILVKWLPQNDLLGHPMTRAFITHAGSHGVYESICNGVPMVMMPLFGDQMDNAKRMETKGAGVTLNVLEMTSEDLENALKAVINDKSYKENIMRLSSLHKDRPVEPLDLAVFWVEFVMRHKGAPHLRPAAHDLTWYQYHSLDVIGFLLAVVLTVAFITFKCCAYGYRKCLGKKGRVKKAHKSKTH
The experiment in a line: UGT substrate assay.

The next series deals with T6, UGT 1A9 (Homo sapiens, UniProt O60656).
T6 sequence (O60656 26-530): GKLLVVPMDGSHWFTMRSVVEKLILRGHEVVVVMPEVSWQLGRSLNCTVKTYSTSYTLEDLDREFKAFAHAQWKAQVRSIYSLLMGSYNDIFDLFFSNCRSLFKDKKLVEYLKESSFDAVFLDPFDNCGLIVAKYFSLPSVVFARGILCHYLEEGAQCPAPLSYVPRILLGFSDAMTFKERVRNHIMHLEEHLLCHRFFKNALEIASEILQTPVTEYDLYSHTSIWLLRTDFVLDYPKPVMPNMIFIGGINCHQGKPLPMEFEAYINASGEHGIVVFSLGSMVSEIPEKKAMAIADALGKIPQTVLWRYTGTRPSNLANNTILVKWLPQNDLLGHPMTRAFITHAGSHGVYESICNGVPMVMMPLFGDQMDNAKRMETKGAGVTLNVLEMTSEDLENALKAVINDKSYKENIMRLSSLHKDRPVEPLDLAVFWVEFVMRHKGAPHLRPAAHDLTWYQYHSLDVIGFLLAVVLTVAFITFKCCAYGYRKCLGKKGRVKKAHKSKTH
Nature of the series: UGT substrate assay.

In the next series the target is CYP3A4 (Homo sapiens, UniProt P08684). Nature of the series: CYP inhibition/activation in pooled human liver microsomes. Format: in vitro ADME.
CYP3A4, sequence (P08684 whole entry): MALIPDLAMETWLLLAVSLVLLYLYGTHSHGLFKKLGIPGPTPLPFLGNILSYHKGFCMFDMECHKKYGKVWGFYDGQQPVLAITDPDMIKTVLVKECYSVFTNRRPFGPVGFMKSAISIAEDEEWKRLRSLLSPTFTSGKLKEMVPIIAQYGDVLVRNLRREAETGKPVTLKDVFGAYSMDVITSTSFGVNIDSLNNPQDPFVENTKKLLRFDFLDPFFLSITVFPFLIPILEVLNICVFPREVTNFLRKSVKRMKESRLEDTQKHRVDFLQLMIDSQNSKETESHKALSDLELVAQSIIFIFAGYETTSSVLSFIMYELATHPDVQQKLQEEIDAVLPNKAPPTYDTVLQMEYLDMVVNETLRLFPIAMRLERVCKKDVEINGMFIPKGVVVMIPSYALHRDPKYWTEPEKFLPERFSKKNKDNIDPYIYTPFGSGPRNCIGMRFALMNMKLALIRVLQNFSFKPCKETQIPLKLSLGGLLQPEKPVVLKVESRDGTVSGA

Entries after “also recorded” stand apart in the source; their conditions may differ. Where two headings read alike, the source gives them in different places.

CYP2D6, sequence (P10635 whole entry): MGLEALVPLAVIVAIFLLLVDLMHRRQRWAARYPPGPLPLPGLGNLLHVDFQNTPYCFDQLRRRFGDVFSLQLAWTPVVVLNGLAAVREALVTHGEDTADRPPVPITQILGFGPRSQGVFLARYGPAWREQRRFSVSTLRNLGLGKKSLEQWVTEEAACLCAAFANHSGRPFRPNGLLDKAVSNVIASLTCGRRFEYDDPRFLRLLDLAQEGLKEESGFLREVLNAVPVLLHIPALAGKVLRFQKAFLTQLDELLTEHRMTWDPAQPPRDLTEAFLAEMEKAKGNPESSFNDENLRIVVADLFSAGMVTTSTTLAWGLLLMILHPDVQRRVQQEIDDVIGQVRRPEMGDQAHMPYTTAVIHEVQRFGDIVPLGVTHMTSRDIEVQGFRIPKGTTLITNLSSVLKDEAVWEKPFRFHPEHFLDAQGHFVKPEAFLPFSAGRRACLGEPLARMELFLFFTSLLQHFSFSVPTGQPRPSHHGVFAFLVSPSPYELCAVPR

`Cc1nnc(C(=O)NC(C)(C)c2nc(C(=O)NCc3ccc(F)cc3)c(O)c(=O)n2C)o1` [raltegravir, reference compound]: the “major mechanism of clearance in humans” value at UGT 1A1 [1] (humans) was “UGT 1A1-mediated glucuronidation”. Further, in the series with HIV-1 (read-out: anti-HIV-1 EC50), the concentration giving a half-maximal response (EC50) was < 0.006 µM.

Regarding `O=C(O)C(=O)C=C(O)c1cc(Cc2ccc(F)cc2F)cn(Cc2ccc(F)cc2F)c1=O` [Entry 11, 4-(1,5-bis(2,4-difluorobenzyl)-2-oxo-1,2-dihydropyridin-3-yl)-4-hydroxy-2-oxobut-3-enoic acid], at HIV-1 integrase, it took 0.0055 ± 0.0015 µM to reach half-maximal inhibition (IC50). In addition, the EC50 in the series on HIV-1 was 0.3 µM; in the series with HIV-1 (read-out: anti-HIV-1 EC50) it was ≤ 0.5 µM.

Regarding `CC(C)OC(=O)/C(O)=C/C(=O)c1cc(Cc2ccc(F)cc2F)cn(Cc2ccccc2F)c1=O` [Compound 10], the “conversion to compound 2 by hydrolysis in human liver microsomes” value in series [2] (in 15 minutes) is given as 100%. The half-inhibitory concentration (IC50) at HIV-1 integrase is > 0.475 µM.

As for `C[C@@H]1CCO[C@H]2Cn3cc(C(=O)NCc4ccc(F)cc4F)c(=O)c(O)c3C(=O)N12` [S/GSK 1349572], on UGT 1A1 [1] (primary route of metabolism and clearance is glucuronidation), the “substrate activity towards UGT 1A1” value was “substrate for UGT 1A1”.

`O=C(O)/C(O)=C/C(=O)c1cc(Cc2ccc(F)cc2F)cn(Cc2ccccc2F)c1=O` [Compound 2, 4-(5-(2,4-difluorobenzyl)-1-(2-fluoro-benzyl)-2-oxo-1,2-dihydro-pyridin-3-yl)-2-hydroxy-4-oxobut-2-enoic acid]: the “activation of CYP2C8” value on CYP2C8 is recorded as “did not exhibit any activation”. Besides, on CYP2D6, the “activation of CYP2D6” value is listed as “did not exhibit any activation” and the “inhibition of CYP2D6” value was “not an inhibitor”. At UGT 1A4, the “substrate activity towards UGT 1A4” value is given as “not a substrate”. At UGT 2B7, the “substrate activity towards UGT 2B7” value is given as “not a substrate”. In addition, the “stability in pooled human liver microsomes” value in [2] is reported as “good stability; also recorded: relatively stable”. Moreover, at UGT 1A1 [3], the “substrate activity towards UGT 1A1” value is given as “not a substrate”. Besides, the “substrate activity towards UGT 1A6” value at UGT 1A6 was “not a substrate”. Further, the EC50 in the series on HIV-1 (read-out: anti-HIV-1 EC50) is ≤ 0.5 µM. Further, on UGT 1A9, the “substrate activity towards UGT 1A9” value is “not a substrate”. Besides, on CYP3A4, the “activation of CYP3A4” value is recorded as “did not exhibit any activation” and the “inhibition of CYP3A4” value is “not an inhibitor”.
